For one data set, the target named is MMP-3 (Homo sapiens, UniProt P08254). Nature of the data set: Matrix metalloprotease panel, single concentration. It counts as biochemical. As for the experimental part: (§1) Several compounds were tested at a single concentration against a panel of matrix metalloproteases including angiotensin converting enzyme (ACE) and the percentage inhibition determined.
A further data set addresses MMP-8 (Homo sapiens, UniProt P22894). Nature of the data set: Matrix metalloprotease panel, single concentration. It counts as biochemical. Here is the method:
as §1

A further data set concerns the target T1, MMP-7 (Homo sapiens, UniProt P09237).
T1 sequence (P09237 95-267): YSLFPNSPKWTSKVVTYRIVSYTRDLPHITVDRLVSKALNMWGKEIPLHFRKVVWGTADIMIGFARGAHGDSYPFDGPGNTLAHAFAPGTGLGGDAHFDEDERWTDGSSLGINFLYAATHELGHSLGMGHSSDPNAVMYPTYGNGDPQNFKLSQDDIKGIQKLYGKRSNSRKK
Put plainly: Matrix metalloprotease panel, single concentration. The format is biochemical. As for the experimental part:
as §1

A further data set deals with MMP-14 (Homo sapiens, UniProt P50281). Nature of the data set: Matrix metalloprotease panel, single concentration. It counts as biochemical. Here is the method: as §1
The target of another data set is T2, MMP-2 (Homo sapiens, UniProt P08253).
T2 sequence (P08253 110-660): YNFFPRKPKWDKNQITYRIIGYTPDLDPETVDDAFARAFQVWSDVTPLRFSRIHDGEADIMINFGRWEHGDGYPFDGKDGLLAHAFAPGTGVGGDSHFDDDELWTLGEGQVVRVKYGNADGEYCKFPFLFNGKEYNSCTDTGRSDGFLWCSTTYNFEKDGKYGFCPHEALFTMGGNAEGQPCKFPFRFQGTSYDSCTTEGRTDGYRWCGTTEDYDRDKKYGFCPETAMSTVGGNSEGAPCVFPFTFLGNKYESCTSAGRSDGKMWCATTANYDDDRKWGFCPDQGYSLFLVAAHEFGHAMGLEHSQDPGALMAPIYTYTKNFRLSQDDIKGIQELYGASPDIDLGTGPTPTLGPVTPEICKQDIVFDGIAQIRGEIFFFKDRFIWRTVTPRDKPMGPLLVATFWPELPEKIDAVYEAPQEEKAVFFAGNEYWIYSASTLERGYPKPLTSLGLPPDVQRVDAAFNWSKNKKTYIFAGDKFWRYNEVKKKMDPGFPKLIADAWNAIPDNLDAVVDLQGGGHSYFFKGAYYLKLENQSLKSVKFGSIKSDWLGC
Put plainly: Matrix metalloprotease panel, single concentration. The format is biochemical. As for the experimental part: as §1

The target of another data set is MMP-10 (Homo sapiens, UniProt P09238). Put plainly: Matrix metalloprotease panel, single concentration. It counts as biochemical. Here is the method:
as §1

For a further data set, the target named is MMP-9 (Homo sapiens, UniProt P14780). Nature of the data set: Matrix metalloprotease panel, single concentration. The format is biochemical. As for the experimental part:
as §1

For the next data set, the target named is MMP-12 (Homo sapiens, UniProt P39900). Nature of the data set: Matrix metalloprotease panel, single concentration. It counts as biochemical. Here is the method:
as §1

For a further data set, the target named is T3, MMP-1 (Homo sapiens, UniProt P03956).
T3 sequence (P03956 100-469): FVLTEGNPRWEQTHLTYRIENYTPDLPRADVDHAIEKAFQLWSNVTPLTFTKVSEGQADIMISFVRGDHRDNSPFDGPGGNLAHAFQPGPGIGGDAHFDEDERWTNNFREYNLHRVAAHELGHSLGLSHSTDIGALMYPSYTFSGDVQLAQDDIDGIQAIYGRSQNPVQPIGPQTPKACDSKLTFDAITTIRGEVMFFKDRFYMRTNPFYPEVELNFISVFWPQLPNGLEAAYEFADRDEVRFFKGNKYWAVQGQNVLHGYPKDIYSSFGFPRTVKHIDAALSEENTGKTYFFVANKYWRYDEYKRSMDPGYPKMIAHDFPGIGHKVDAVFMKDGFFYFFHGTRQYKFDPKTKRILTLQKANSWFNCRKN
Nature of the data set: Matrix metalloprotease panel, single concentration. It counts as biochemical. Here is the method: as §1

For the next data set, the target named is MMP-13 (Homo sapiens, UniProt P45452). Nature of the data set: Matrix metalloprotease panel, single concentration. The format is biochemical. Here is the method: as §1
In data set [1] the target is angiotensin converting enzyme (ACE) (Homo sapiens, UniProt P12821). Put plainly: Matrix metalloprotease panel, single concentration. The format is biochemical. As for the experimental part: as §1
angiotensin converting enzyme (ACE), sequence (P12821 30-1306, species assumed): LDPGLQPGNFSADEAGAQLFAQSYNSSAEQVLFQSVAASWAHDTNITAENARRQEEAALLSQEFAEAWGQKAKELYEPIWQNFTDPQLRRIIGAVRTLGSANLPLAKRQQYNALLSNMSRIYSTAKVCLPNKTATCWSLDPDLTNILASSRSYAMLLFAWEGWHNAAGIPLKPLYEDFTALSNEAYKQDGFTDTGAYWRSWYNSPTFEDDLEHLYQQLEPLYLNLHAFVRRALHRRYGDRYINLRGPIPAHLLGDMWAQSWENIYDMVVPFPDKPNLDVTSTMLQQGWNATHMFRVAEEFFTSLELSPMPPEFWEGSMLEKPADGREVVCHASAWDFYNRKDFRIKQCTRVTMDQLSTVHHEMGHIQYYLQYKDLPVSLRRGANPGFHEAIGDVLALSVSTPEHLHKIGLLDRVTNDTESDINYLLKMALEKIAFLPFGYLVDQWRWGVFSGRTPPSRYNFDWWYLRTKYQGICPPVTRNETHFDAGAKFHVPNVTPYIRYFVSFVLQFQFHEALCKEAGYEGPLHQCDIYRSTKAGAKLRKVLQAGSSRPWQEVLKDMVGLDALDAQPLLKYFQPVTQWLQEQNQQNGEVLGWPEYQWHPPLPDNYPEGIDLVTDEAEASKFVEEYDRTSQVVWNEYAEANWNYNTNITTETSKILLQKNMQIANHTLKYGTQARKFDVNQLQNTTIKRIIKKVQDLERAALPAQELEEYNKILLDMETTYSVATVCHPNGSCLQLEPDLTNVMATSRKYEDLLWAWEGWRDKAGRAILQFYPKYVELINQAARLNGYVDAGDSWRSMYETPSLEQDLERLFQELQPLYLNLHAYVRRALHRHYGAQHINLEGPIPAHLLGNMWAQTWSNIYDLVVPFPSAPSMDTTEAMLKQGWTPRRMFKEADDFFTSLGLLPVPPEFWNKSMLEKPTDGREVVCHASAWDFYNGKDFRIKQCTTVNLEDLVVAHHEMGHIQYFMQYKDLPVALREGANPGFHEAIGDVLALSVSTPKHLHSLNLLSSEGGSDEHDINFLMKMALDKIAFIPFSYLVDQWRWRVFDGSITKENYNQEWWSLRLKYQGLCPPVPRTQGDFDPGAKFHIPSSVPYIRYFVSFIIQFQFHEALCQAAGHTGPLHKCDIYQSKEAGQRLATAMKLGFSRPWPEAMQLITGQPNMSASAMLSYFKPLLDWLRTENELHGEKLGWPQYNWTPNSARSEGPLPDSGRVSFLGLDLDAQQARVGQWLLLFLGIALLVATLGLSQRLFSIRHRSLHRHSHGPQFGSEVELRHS
The test system of the next data set is HDAC (HeLa cell extract). Nature of the data set: Selectivity assay: HDAC activity, fluorescent assay (Fluor de Lys). The format is biochemical. To be noted: for Av. HDAC Inhibition, % @100: single concentration @100 (μM). Here is the method:
Alternatively, the activity of the compounds as HDAC inhibitors was determined using a commercially available fluorescent assay kit (Fluor de Lys™, BioMol Research Labs, Inc., Plymouth Meeting, USA). HeLa extract was incubated for 1 hour at 37° C. in assay buffer (25 mM HEPES, 137 mM NaCl, 2.7 mM KCl, 1 mM MgCl2, pH 8.0) with 15 μM acetylated substrate in the presence of test compound (HDAC inhibitor). The extent of deacetylation was determined by the addition of 50 μL of a 1-in-500 dilution of Developer, and subsequent measurement of the fluorescence (excitation 355 nm, emission 460 nm), according to the instructions provided with the kit.
The HeLa cell extract was made from HeLa cells (ATCC Ref. No. CCL-2) by freeze-thawing three times in 60 mM Tris.HCl, pH 8.0, 450 mM NaCl, 30% glycerol. Two cell volumes of extraction buffer were used, and particulate material was centrifuged out (20,800 g, 4° C., 10 minutes). The supernatant extract having deacetylase activity was aliquoted and frozen for storage.
(§2) Percent activity (% activity) for each test compound was calculated as:
(§3) % activity={(S^C−B)/(S^o−B)}×100
(§4) wherein S^C denotes signal measured in the presence of enzyme and the compound being tested, S^o denotes signal measured in the presence of enzyme but in the absence of the compound being tested, and B denotes the background signal measured in the absence of both enzyme and compound being tested. The IC50 corresponds to the concentration which achieves 50% activity.

The target in data set [2] is T4, Human recombinant TACE enzyme (Homo sapiens, UniProt P78536).
T4 construct: purchased R and D Systems, Abingdon, UK 930-ADB
T4 sequence (P78536 215-671 limits assumed): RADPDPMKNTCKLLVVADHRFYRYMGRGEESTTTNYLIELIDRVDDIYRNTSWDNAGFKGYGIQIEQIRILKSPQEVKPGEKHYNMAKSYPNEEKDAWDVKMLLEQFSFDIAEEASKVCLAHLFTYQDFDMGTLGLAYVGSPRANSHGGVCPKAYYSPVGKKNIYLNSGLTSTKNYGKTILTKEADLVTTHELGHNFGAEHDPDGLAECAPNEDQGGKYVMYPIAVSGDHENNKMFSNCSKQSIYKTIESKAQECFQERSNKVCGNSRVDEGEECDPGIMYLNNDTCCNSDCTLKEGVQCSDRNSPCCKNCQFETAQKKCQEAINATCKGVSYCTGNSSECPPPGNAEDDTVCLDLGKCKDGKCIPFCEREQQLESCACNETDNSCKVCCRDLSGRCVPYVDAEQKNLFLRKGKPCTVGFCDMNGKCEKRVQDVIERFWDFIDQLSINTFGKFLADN
Nature of the data set: TACE assay (fluorescent peptide substrate). It counts as biochemical. Particulars: 3.5 h; single concentration @100 (μM); read-out: Av. TACE Inhibition, % @100. Here is the method: The activity of the compounds as TACE inhibitors was determined using a commercially available peptide substrate (M-2255, Bachem UK Ltd, St. Helens, UK) and recombinant TACE enzyme (930-ADB, R and D Systems, Abingdon, UK). Human recombinant TACE enzyme (5 ng/30 μL) was incubated for 3.5 hour at 37° C. in assay buffer (25 mM Tris.HCl, 2.5 μM ZnCl2, 0.005% Brij 35, pH 8.0) with 5 μM substrate in the presence of test compound (TACE inhibitor). The extent of TACE activity was determined by measurement of the fluorescence (excitation 355 nm, emission 460 nm).
as §2, §3, §4

The structures appear in SMILES notation.

MMP-9, sequence (P14780 94-707, species assumed): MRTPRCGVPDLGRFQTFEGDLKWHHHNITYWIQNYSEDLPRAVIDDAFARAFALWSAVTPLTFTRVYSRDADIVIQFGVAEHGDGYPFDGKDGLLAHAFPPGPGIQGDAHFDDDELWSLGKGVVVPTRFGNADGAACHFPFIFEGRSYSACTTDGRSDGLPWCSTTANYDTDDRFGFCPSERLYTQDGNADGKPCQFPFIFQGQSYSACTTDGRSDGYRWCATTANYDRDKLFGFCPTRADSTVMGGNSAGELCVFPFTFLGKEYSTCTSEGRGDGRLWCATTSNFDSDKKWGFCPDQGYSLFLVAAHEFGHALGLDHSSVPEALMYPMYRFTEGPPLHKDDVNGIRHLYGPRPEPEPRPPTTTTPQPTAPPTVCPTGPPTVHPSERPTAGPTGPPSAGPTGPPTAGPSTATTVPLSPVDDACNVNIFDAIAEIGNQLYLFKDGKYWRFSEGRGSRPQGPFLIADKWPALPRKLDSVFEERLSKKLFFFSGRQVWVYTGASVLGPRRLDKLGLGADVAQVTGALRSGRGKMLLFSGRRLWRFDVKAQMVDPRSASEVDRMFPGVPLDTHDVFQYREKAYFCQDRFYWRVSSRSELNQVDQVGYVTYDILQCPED
MMP-10, sequence (P09238 99-476, species assumed): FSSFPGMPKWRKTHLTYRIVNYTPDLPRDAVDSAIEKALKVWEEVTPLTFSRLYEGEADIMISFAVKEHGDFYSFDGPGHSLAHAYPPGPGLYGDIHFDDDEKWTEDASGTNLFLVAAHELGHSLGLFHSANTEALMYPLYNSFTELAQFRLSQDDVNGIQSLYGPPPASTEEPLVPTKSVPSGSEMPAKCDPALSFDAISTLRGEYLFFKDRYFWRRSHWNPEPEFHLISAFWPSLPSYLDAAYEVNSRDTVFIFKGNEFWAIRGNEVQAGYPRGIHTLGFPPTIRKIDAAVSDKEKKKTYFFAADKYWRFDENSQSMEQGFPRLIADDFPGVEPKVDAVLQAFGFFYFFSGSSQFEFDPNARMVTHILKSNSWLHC
MMP-8, sequence (P22894 101-467, species assumed): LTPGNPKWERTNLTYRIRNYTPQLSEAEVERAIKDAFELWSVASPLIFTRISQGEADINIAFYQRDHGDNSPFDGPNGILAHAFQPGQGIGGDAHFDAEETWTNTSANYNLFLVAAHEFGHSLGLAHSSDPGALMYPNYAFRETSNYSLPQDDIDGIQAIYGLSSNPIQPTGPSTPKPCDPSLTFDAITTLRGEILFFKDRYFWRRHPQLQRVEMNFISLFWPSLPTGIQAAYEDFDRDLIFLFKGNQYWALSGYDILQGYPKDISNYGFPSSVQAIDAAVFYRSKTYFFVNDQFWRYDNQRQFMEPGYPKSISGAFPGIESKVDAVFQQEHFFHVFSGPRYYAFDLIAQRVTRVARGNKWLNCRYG
MMP-3, sequence (P08254 100-477, species assumed): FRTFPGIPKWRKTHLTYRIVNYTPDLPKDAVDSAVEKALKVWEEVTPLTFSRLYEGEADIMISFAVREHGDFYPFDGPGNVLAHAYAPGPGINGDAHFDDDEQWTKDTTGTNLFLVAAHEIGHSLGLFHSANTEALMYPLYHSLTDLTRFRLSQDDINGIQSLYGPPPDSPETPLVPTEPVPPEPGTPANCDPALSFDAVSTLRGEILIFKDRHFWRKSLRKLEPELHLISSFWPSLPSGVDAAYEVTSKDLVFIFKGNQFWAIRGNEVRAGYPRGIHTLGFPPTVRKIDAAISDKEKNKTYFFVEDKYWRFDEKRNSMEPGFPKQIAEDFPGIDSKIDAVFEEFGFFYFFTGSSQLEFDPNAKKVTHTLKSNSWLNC
MMP-12, sequence (P39900 106-470, species assumed): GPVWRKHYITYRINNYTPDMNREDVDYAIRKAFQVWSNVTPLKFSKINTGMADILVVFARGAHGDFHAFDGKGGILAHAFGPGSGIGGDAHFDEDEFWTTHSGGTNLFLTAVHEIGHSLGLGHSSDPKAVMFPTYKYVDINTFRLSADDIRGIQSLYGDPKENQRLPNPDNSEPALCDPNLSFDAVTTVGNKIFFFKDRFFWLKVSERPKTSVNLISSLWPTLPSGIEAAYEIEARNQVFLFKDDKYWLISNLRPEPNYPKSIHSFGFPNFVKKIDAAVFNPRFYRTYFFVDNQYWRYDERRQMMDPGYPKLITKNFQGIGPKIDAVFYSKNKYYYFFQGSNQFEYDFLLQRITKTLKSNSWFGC

One may read the inhibition as the drop in the measured response relative to a control, in per cent. Take `O=C(CC1c2ccccc2S(=O)(=O)N1c1ccccc1)NO` (stereo not shown) [IX-001]: the inhibition at 5 µM was 1% on MMP-3; 30% on MMP-8; 0% against MMP-7; 2% against MMP-14; 19% against MMP-2; 0% against MMP-10. The inhibition at 5 µM is 19% against MMP-9; 56% against MMP-12; 0% against MMP-1; 24% against MMP-13; 6% in data set [1]. Besides, the “Av. HDAC Inhibition, % @100” value in the data set on HDAC (HeLa cell extract) turned out to be 10%@100.

In the case of `COc1cccc(N2C(CC(=O)NO)c3ccccc3S2(=O)=O)c1` (stereo not shown) [IX-009], the inhibition at 100 µM in data set [2] turned out to be 52%. Moreover, the “Av. HDAC Inhibition, % @100” value in the data set with HDAC (HeLa cell extract) is listed as 24%@100.

As to `O=C(CC1c2ccccc2S(=O)(=O)N1c1ccc(OC(F)(F)F)cc1)NO` (stereo not shown) [IX-020], in the data set with HDAC (HeLa cell extract), the “Av. HDAC Inhibition, % @100” value was −2%@100.

With `CCCCOc1ccc(N2C(CC(=O)NO)c3ccccc3S2(=O)=O)cc1` (stereo not shown) [IX-036], in the data set on HDAC (HeLa cell extract), the “Av. HDAC Inhibition, % @100” value is listed as −4%@100.

For `CC#CCOc1ccc(N2C(CC(=O)NO)c3ccccc3S2(=O)=O)cc1` (stereo not shown) [IX-045], the inhibition at 5 µM at MMP-3 was 11%; at MMP-8 it was 21%; against MMP-7 it was -5%; against MMP-14 it was 0%; against MMP-2 it was 10%; at MMP-10, 6%. In addition, the inhibition at 5 µM is -2% at MMP-9; 37% against MMP-12; -4% against MMP-1; -12% against MMP-13; -8% in data set [1]. For the same molecule, the “Av. HDAC Inhibition, % @100” value in the data set on HDAC (HeLa cell extract) amounted to 38%@100.

By melting point is commonly meant the temperature of the solid-liquid transition. Take `Cc1cc(COc2ccc(N3C(CC(=O)NO)c4ccccc4S3(=O)=O)cc2)c2ccccc2n1` (stereo not shown) [IX-048]: the melting point is 195 to 197 °C. On MMP-3, the inhibition at 5 µM came out at 34%. Further, the inhibition at 5 µM against MMP-8 turned out to be 13%. Besides, the inhibition at 5 µM at MMP-7 stood at 31%. Further, the inhibition at 5 µM against MMP-14 is 4%. Besides, on MMP-2, the inhibition at 5 µM is -3%. Moreover, the inhibition at 5 µM at MMP-10 was 9%. Also, the inhibition at 5 µM on MMP-9 was -8%. At MMP-12, the inhibition at 5 µM was 49%. Also, at MMP-1, the inhibition at 5 µM worked out at 6%. Besides, the inhibition at 5 µM on MMP-13 was -10%. In addition, the inhibition at 5 µM in data set [1] is -4%. Further, the “Av. HDAC Inhibition, % @100” value with HDAC (HeLa cell extract) is on record as 19%@100.

For `COc1ccc2c(c1)C(CC(=O)NO)N(c1ccccc1)S2(=O)=O` (stereo not shown) [IX-068], in the data set with HDAC (HeLa cell extract), the “Av. HDAC Inhibition, % @100” value is listed as 44%@100.

With `O=C(CC1c2ccccc2S(=O)(=O)N1c1cccc(CO)c1)NO` (stereo not shown) [IX-075], the inhibition at 100 µM in data set [2] came out at 64%. Besides, the “Av. HDAC Inhibition, % @100” value in the data set on HDAC (HeLa cell extract) came out at 2%@100.

In general, EC50 refers to the concentration at which the effect is half-maximal. As to `CCOc1ccc2c(c1)C(CC(=O)NO)N(c1ccccc1)S2(=O)=O` (stereo not shown) [IX-078], the EC50 in the data set with HDAC (HeLa cell extract) (15 μM acetylated substrate, 1 hour at 37° C., read-out: Av. HDAC Inhibition EC50) amounted to 23.7 µM.

Turning to `O=C(C[C@@H]1c2ccccc2S(=O)(=O)[C@H]1c1ccccc1)NO` [IX-097], in the data set on HDAC (HeLa cell extract), the “Av. HDAC Inhibition, % @100” value came out at 20%@100.

The values above are taken from US20100311741A1, “Bicyclosulfonyl Acid (BCSA) Compounds and Their Use as Therapeutic Agents” (INHIBOX LTD., priority 2007, published 2010).
